Data set [1] concerns mixed bacteria in salivary sediment. Description: Eh lowering by amino acids or salivary supernatant in the salivary sediment system. Conditions: 3 mM amino acid, 16.7% salivary sediment, 60 mM phosphate buffer, 37° C., up to 24 hours; for Lowest Eh reached, Group B: Group B (next lowest Eh); for Lowest Eh reached, Group A: Group A (highest Eh levels). The text has this: This model utilizes the mixed oral bacteria collected in the salivary sediment obtained from whole saliva by centrifugation. […] This model is recognized in the art as an effective proxy to study the microbial metabolic and related biochemical processes of the oral cavity.
(§1) To collect salivary sediment and salivary supernatant for the assay, saliva stimulated by chewing paraffin wax was expectorated into test-tubes chilled in cracked ice. […] Following collection, the saliva was centrifuged at 1740×g for 15 minutes and the supernatant was subsequently removed by pipette and kept on ice until the assay was run. Next, the sediment was washed three times with ice cold distilled water to remove any residual salivary supernatant. The washed salivary sediment was chilled in crushed ice until the assay was run. Prior to incubating the samples and running the assay, the washed salivary sediment was re-suspended in distilled water to a final concentration of 50 percent (V/V).
A control tube contained sediment and water.
(§2) The oxidation-reduction potential (Eh) was determined in each incubation mixture using a platinum electrode and a potassium chloride salt bridge leading to a calomel reference electrode connected to a pH meter used as a millivoltmeter.

The subject of data set [2] is soft tissues of the oral cavity. Conditions: cited from earlier work.
For data set [3] the following is noted: 25° C.; cited from earlier work.
In data set [4] the test system is oral bacteria. Description: In vivo cysteine rinse challenge, VSC (Halimeter) and tongue Eh before and after test rinse (Examples IV-VII). Also on record: species or system human subjects. On the procedure: The ability of a zinc chloride rinse solution to reduce or prevent the formation of volatile sulfur compounds (VSC) in vivo following successive challenges with a cysteine rinse was studied in this Example. The rinse solution consisted of zinc chloride at 6 mM (0.08%). […] The subject rinsed his/her mouth with 5 ml of a 6 mM cysteine solution for 30 seconds to stimulate substantial VSC production by the oral bacteria. […] Before and following the rinse, a Halimeter instrument was used to measure the volatile sulfur compounds (VSC) produced. Simultaneously, a platinum electrode was placed on the posterior dorsum surface of the tongue, just anterior to the circumvallate papillae to measure the Eh. After 20 minutes, the subject rinsed his/her mouth with 5 ml of the zinc chloride solution for 30 seconds. Again, the VSC of the subject's mouth air and the Eh were measured. The subject then rinsed successively with the 6 mM cysteine solution at 40, 60, 140, 320 and 380 minutes and the VSC and Eh of the subject's oral cavity were re-measured each time (see FIG. 5) using the Halimeter and the platinum electrode.
(§3) As before, 5 ml of the zinc/peroxide/chloride ion composition of this invention was applied as a rinse for 30 seconds.
as §3
The abilities of 0.1% sodium chlorite rinse solutions, one without and one with zinc chloride at 6 mM (0.08%) were compared in this Example for their abilities to reduce or prevent the formation of VSC in vivo following successive challenges with a cysteine rinse as before. The oral rinse consisted of application of 5 ml for 30 seconds of either an 0.1% sodium chlorite solution or an 0.1% sodium chlorite solution to which zinc chloride at 0.08% had been added.

The subject of another data set is mixed oral bacteria. Description: Eh during incubation of salivary sediment and salivary supernatant with zinc chloride and/or hydrogen peroxide (Example II). Particulars: zinc chloride 6.0 mM (0.08%), hydrogen peroxide 0.5%, 37° C., 24 hours. The protocol:
as §1, §2
A tube was prepared containing salivary sediment and salivary supernatant only (water control).

Data set [5] deals with oral bacteria. Description: Zinc ion concentration versus rate of volatile sulfur compound production from cysteine (FIG. 1). The format is cell-based. Conditions: inhibition is exponential. The text has this:
Inhibition is exponential and occurs maximally once the zinc ion concentration reaches about 0.2%.

For `N=C(N)NCCC[C@H](N)C(=O)O` [arginine], the “Lowest Eh reached, Group B” value in data set [1] came out at 25 millivolts. As for `N[C@@H](CC(=O)O)C(=O)O` [aspartic], the “Lowest Eh reached, Group A” value in data set [1] amounted to 80 millivolts. For `N[C@@H](CCC(=O)O)C(=O)O` [glutamic], the “Lowest Eh reached, Group B” value in data set [1] worked out at 30 millivolts. Regarding `OO` [hydrogen peroxide], the “Hydrogen peroxide concentration above which it can be harmful to the soft tissues of the oral cavity” value in data set [2] was 3.0 to 3.5%. As to `NCCCC[C@H](N)C(=O)O` [lysine], the “Lowest Eh reached, Group A” value in data set [1] is reported as 95 millivolts. In the case of `NCCC[C@H](N)C(=O)O` [ornithine], the “Lowest Eh reached, Group B” value in data set [1] was found to be 55 millivolts.

`N[C@@H](Cc1ccccc1)C(=O)O` [phenylalanine]: the “Lowest Eh reached, Group A” value in data set [1] is 100 millivolts.

On to `N[C@@H](Cc1ccc(O)cc1)C(=O)O` [tyrosine], for which, in data set [1], the “Lowest Eh reached, Group B” value was determined as 40 millivolts. Regarding `[Cl-].[Cl-].[Zn+2]` [zinc chloride], the Solubility in data set [3] was 432 @ 25 °C g/100 cc. Further, the “Time for which the VSC response to subsequent cysteine rinses was retarded” value with oral bacteria [4] (Example IV, zinc chloride 6 mM (0.08%), 5 ml rinse for 30 seconds) is on record as “about 5 hours”. Further, the “VSC response to cysteine rinsing” value in the data set on oral bacteria [4] (Example IV, zinc chloride 6 mM (0.08%), 5 ml rinse for 30 seconds, 6 mM cysteine challenges) was “reduced the ability of the oral bacteria to produce the VSC response to cysteine rinsing”. Besides, in the data set on oral bacteria [4] (Example IV, zinc chloride 6 mM (0.08%), platinum electrode on tongue dorsum), the Eh during rinsing entry is “raised to a small degree”. Also, in the data set on mixed oral bacteria, the “Decrease in the Eh during incubation” value is given as “some decrease in the Eh” and the “Eh of the incubation mixture compared to salivary supernatant plus salivary sediment control” value was “significantly raised the Eh”. As to `[Zn+2]` [zinc ion], in the data set with oral bacteria [5], the “Zinc ion concentration at which inhibition of volatile sulfur compound production from cysteine is maximal” value is “about 0.2%”. On to sodium chlorite, for which the “Inhibition of VSC production” value in the data set with oral bacteria [4] (Example VII, 0.1% sodium chlorite solution, 5 ml for 30 seconds) is recorded as “no inhibition of VSC production”.

Source of the values: US6929790B2, “Compositions to control oral microbial oxidation-reduction (Eh) levels” (priority 1996, dated 2005).
